Data published in patent publication US20020193383A1, “1-(N-phenylalkylaminoalkyl)piperazine derivatives substituted at position 2 of the phenyl ring” (Recordati S.A., Chemical and Pharmaceutical Comoany, priority 1997, published 2002).

Target: T1, human 5-HT1A serotonergic receptor (Homo sapiens, UniProt P08908)
T1 construct: expressed in transfected cells; host or cells: HeLa (stably transfected)
T1 sequence (P08908 1-422): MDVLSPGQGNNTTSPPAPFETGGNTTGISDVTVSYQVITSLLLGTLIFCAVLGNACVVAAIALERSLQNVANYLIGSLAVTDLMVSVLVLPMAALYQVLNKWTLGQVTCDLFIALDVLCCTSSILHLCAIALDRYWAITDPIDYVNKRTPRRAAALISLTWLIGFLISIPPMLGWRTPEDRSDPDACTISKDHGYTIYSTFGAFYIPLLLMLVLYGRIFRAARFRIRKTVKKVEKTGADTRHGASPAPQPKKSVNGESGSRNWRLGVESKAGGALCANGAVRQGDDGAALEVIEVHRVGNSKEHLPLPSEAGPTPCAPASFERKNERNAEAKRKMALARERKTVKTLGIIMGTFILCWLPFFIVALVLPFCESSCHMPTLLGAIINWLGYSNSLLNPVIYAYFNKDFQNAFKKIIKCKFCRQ
Test: Binding to recombinant human 5-HT1A receptors ([3H]8-OH-DPAT, HeLa cell membranes)
Conditions: read-out: Binding affinity for the 5-HT1A receptor, Ki
Method: Genomic clone G-21 coding for the human 5-HT1A serotonergic receptor is stably transfected in a human cell line (HeLa). HeLa cells were grown as monolayers in Dulbecco's modified Eagle's medium (DMEM), supplemented with 10% fetal calf serum and gentamicin ([…]), 5% CO2 at 37° C. Cells were detached from the growth flask at 95% confluence by a cell scraper and were lysed in ice-cold 5 mM Tris and 5 mM EDTA buffer (pH 7.4). Homogenates were centrifuged at 40000×g×20 min and pellets were resuspended in a small volume of ice-cold 5 mM Tris and 5 mM EDTA buffer (pH 7.4) and immediately frozen and stored at −70° C. until use. On the day of experiment, cell membranes were resuspended in binding buffer: 50 mM Tris HCl (pH 7.4), 2.5 mM MgCl2, 10 μM pargiline (Fargin et al., Nature 335, 358-360, 1988). Membranes were incubated in a final volume of 1 ml for 30 min at 30° C. with 0.2-1 nM [3H]8-OH-DPAT, in absence or presence of competing drugs; non-specific binding was determined in the presence of 10 μM 5-HT. The incubation was stopped by addition of ice-cold Tris-HCl buffer and rapid filtration through 0.2% polyethyleneimine pretreated Whatman GF/B or Schleicher & Schuell GF52 filters.
The inhibition of specific binding of the radioligands by the tested drugs was analyzed to estimate the IC50 value by using the non-linear curve-fitting program Allfit (De Lean et al., Am. J. Physiol. 235, E97-E102, 1978). The IC50 value was converted to an affinity constant (Ki) by the equation of Cheng & Prusoff (Cheng, Y. C.; Prusoff, W. H. Biochem. Pharmacol. 22, 3099-3108, 1973).

Ki [nM]	Compound
1.2	COc1cc(OC(=O)C(C)C)ccc1N1CCN(CCN(C(=O)C2CCCCC2)c2ccccc2OC(F)(F)F)CC1 [Example 96, 1-[N-cyclohexylcarbonyl-N-(2-trifluoromethoxyphenyl)-2-aminoethyl]-4-[4-(2-methylpropionyloxy)-2-methoxyphenyl]piperazine]
1.6	COc1cc(O)ccc1N1CCN(CCN(C(=O)C2CCCCC2)c2ccccc2OC(F)(F)F)CC1 [Example 93, 1[N-cyclohexylcarbonyl-N-(2-trifluoromethoxyphenyl)-2-aminoethyl]-4-(4-hydroxy-2-methoxyphenyl)piperazine]

Compound	Ki [nM]
COc1cc(OC(C)=O)ccc1N1CCN(CCN(C(=O)C2CCCCC2)c2ccccc2OC(F)(F)F)CC1 [Example 94, 1-[N-cyclohexylcarbonyl-N-(2-trifluoromethoxyphenyl)-2-aminoethyl]-4-(4-acetoxy-2-methoxyphenyl)piperazine]	2.14
